Reference: article PMC3077598 (The Journal of Biological Chemistry, 2011)

Columns and labels:
[1] = molecular target: TASK-1 (Homo sapiens, UniProt O14649, T199A); assay: two-electrode voltage clamp, Xenopus oocytes; assay type: cell-based; conditions: read-out: % inhibition at 400 nM
[2] = molecular target: TASK-1 (Homo sapiens, UniProt O14649, T93A); assay: two-electrode voltage clamp, Xenopus oocytes; assay type: cell-based; conditions: read-out: % inhibition at 400 nM
Chain of TASK-1 (Homo sapiens, UniProt O14649, T93A) (O14649 whole entry T93A): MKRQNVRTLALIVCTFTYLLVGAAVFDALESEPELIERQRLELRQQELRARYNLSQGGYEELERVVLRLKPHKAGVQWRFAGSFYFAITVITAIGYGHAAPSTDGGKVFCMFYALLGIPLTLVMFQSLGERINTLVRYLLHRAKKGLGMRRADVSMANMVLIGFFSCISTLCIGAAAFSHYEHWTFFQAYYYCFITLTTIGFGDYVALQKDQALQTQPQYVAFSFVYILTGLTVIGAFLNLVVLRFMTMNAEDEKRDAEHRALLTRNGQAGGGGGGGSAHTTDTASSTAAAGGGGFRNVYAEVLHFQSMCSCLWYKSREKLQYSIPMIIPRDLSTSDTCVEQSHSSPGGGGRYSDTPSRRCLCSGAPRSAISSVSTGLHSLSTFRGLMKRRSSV

Chain of TASK-1 (Homo sapiens, UniProt O14649, T199A) (O14649 whole entry T199A): as the sequence (O14649 whole entry T93A) above, with A93T, T199A counted along it

inhibition at 0.4 µM [1]: 36.4 ± 6.4% | inhibition at 0.4 µM [2]: 26.4 ± 6.4%
SMILES: COc1ccc(CC(=O)NCc2ccccc2-c2ccccc2C(=O)NCc2ccc(F)cc2F)cc1 [A1899]
